Measurements: PMC7708037, “Targeting OGG1 arrests cancer cell proliferation by inducing replication stress” (Nucleic Acids Research, 2020)

System: genomic 8-oxodG in A3 cells
Assay: 8-oxodG detection in genomic DNA by LC-MS/MS
Assay type: cell-based, human
Details: 10 μM, up to five days
Experimental: 8-oxodG detection in genomic DNA through LC–MS/MS ([39]) and single-cell electrophoresis ([40]) were performed as described.
Figure 5. Effect of TH5487 on DNA lesions, DNA damage markers and DNA replication. (A) 8-oxodG accumulation in A3 cells. A3 cells were treated with 20 mM KBrO3 for 1 h or with 10 μM TH5487 for the indicated times, and the amount of genomic 8-oxodG was quantified with LC-MS/MS. Data are average ±SD of five replicates from two independent experiments. (B) Comet assay. A3 cells were treated with 10 μM TH5487 for 72 h and strand-breaks and OGG1 substrate lesions were analyzed with the OGG1-modified Comet assay. Representative images of cells are shown. (C) Violin blot of Comet tail moment. Cells were treated as in B, and the tail moment of the cells were analyzed using blinded automatic analysis (n = 200 per condition from two independent experiments). The full line indicates median, and the dotted lines quartiles. (D) Violin blot of phosphorylated γH2AX intensity. A3 cells were treated with 0.1% DMSO or 10 μM TH5487 for the indicated times and stained for phosphorylated γH2AX. […] At least 33 000 nuclei per group were quantified from three independent experiments. […] At least 300 forks were scored per condition. Statistical significance was determined using unpaired, two-sided t-tests (**P < 0.01, ***P < 0.001 and ****P < 0.0001; ns, non-significant).

## O=C(Nc1ccc(I)cc1)N1CCC(n2c(=O)[nH]c3c(Br)cccc32)CC1 [TH5487]
  Genomic 8-oxodG levels: did not rise above assay background levels
